Results published in patent US20120076781A1, “METHODS OF TREATING CANCERS WITH HER3 ANTISENSE OLIGONUCLEOTIDES” (ENZON PHARMACEUTICALS, INC., priority 2009, published 2012).
In the oligonucleotide strings, read from the 5' end, every base follows the letter of its sugar. An asterisk marks phosphorothioate; unmarked linkages are phosphodiester. Other units and linkages are bracketed, terminal groups are in braces. A string of capitals states the bases alone. l = locked nucleic acid (LNA); [5mC] = 5-methylcytosine; d = 2'-deoxy (DNA)

Experiments:
[1] = test system: Mouse HER3 mRNA; test: HER3 mRNA knockdown in liver of nude mice bearing 15PC3 xenografts, qd x 5 (qRT-PCR); assay type: in vivo; settings: i.v.
Protocol: (§1) To evaluate the knockdown efficacy of the HER3 oligomeric compounds in vivo, the female nude mice bearing 15PC3 xenografts developed by subcutaneous injection of 5×10^6 cells/mouse into the right axillary flank, were injected intravenously with the oligomers at various doses and injection schedules (i.e. single dose, qd, q3d, q4d). Scrambled oligomer SEQ ID NO: 236 served as a negative control. 24 hours after the last injection, the mice were euthanized and liver and tumor tissues were collected in RNAlater solution (Ambion). Total RNA was purified from the tissues and the levels of HER3 mRNA were determined by quantitative reverse transcription-real time PCR (qRT-PCR) using the QuantiTect Probe RT-PCR kit (Cat#: 204443; Qiagen). GAPDH mRNA served as an internal control.
(§2) 200 ng of total RNA was used in the PCR reaction. The data analyses were performed by using the ABI-7500 PCR Fast System included software.
(§3) Data in Table 5 are presented as % HER3 mRNA levels relative to saline treated controls in liver and tumor samples after i.v. dosing of animals on 5 consecutive days with oligonucleotides in the doses indicated.

[2] = test system: human HER3 mRNA; test: HER3 mRNA knockdown in 15PC3 xenograft tumor in nude mice, qd x 5 (qRT-PCR); assay type: in vivo; settings: i.v., relative to saline controls
Protocol: as §1, §2, §3

[3] = test system: HER3 mRNA; test: HER3 mRNA knockdown in 15PC3 xenograft tumor, different dosing cycle; assay type: in vivo, human; settings: every third day
Protocol: as §1
(§4) The knockdown efficacy of oligomers was evaluated in vivo in nude mice bearing xenograft tumors derived from 15PC3 cells or A549 cells (NSCLC) or N87 cells (gastric carcinoma) using a similar protocol to the one described above in Example 11. Oligomers were administered by injection every third day in 2-4 doses. Tissues were harvested 3 or 4 days after the last injection.
(§5) Data in Tables 6 and 7 are presented as % HER3 mRNA or HIF-1 alpha mRNA relative to saline treated controls in liver and tumor samples after i.v. dosing of animals with the indicated oligomers.

[4] = test system: HIF-1 alpha mRNA; test: HIF-1 alpha mRNA in 15PC3 xenograft tumor, different dosing cycle; assay type: in vivo, human; settings: 60.2 x 2 or 3 mg/kg i.v., every third day
Protocol: as §1, §4, §5

[5] = test system: HER3 mRNA; test: HER3 mRNA knockdown in liver of xenograft-bearing nude mice, different dosing cycle; assay type: in vivo, mouse; settings: for Liver HER3 mRNA relative to saline treated controls: 15PC3 xenograft mice, every third day
Protocol: as §1
(§6) The knockdown efficacy of oligomers was evaluated in vivo in nude mice bearing xenograft tumors derived from 15PC3 cells or A549 cells (NSCLC) or N87 cells (gastric carcinoma) using a similar protocol to the one described above in Example 11. […] Tissues were harvested 3 or 4 days after the last injection.
as §5

[6] = test system: HER3 mRNA; test: HER3 mRNA knockdown in A549 (NSCLC) xenograft tumor; assay type: in vivo, human; settings: 35 mg/kg, q4d x 3, i.v.
Protocol: as §1, §4, §5

[7] = test system: HER3 mRNA; test: HER3 mRNA knockdown in N87 (gastric carcinoma) xenograft tumor; assay type: in vivo, human; settings: 25 mg/kg, q3d x 5, i.v.
Protocol: as §1, §6, §5

[8] = test system: gefitinib-resistant HCC827 cells; test: Colony growth of gefitinib-resistant HCC827R cells (MTT staining, colony count); assay type: cell-based, human; settings: 1 μM, 10 days
Protocol: (§7) HCC827 lung adenocarcinoma cells (ATCC CRL-2868) were maintained at 37° C. in a humidified atmosphere of 5% CO2 and 95% air in RPMI medium supplemented with 10% fetal bovine serum. To generate gefitinib resistance, cells were treated with increasing amounts of gefitinib (up to 500 nM) for a period of 3 months.
(§8) HCC287 and HCC287R cells were plated in duplicate at 200 cells/well of a 6-well plate and incubated for 24 hours. Cells were treated with 1 μM of ON180 (SEQ ID NO: 180) and incubated for 10 days, after which cells were stained with MTT and the number of colonies counted. Percent of control was calculated for both HCC827 and […] cells.

[9] = test system: HCC827 gefitinib-sensitive cells; test: Colony growth of gefitinib-sensitive HCC827 cells (MTT staining, colony count); assay type: cell-based, human; settings: 1 μM, 10 days
Protocol: as §7, §8

[10] = test system: HCC827 human cell line xenograft; test: Tumor growth in mouse xenograft model of human non-small cell lung cancer; assay type: in vivo; settings: at approximately 31 days
[11] = test system: HER3 and P-HER3; test: Feedback upregulation of HER3 and P-HER3 by lapatinib in BT474, SKBR3 and MDA453 cells; assay type: cell-based, human; settings: lapatinib 1 μM, trastuzumab 10 μg/ml, SEQ ID NO: 180 5 μM, 0-48 hours

TSASGScScStSgStScSaScStStSCSTSC (antisense lT*lA*lG*dC*dC*dT*dG*dT*dC*dA*dC*dT*dT*l[5mC]*lT*l[5mC]) [SEQ ID NO: 180, β-D-oxy-LNA/DNA phosphorothioate gapmer antisense oligonucleotide targeting HER3]
HER3 mRNA Liver ([1]; 19.8 mg/kg): 1.7 ± 0.6 % of Sal ctrl
HER3 mRNA Liver ([1]; 25.6 mg/kg): 3 ± 0.3 % of Sal ctrl
HER3 mRNA Liver ([1]; 31.3 mg/kg): 1.6 ± 0.3 % of Sal ctrl
HER3 mRNA Liver ([1]; 66 mg/kg): 6 ± 5.3 % of Sal ctrl
HER3 mRNA Liver ([1]; 85.3 mg/kg): 1 ± 0.3 % of Sal ctrl
HER3 mRNA Tumor ([2]; 19.8 mg/kg): 83.1 ± 19.5%
HER3 mRNA Tumor ([2]; 25.6 mg/kg): 65 ± 20.2%
HER3 mRNA Tumor ([2]; 31.3 mg/kg): 37 ± 5.8%
HER3 mRNA Tumor ([2]; 66 mg/kg): 32.3 ± 9.7%
HER3 mRNA Tumor ([2]; 85.3 mg/kg): 25.8 ± 4.1%
Tumor HER3 mRNA relative to saline treated controls ([3]; 60.2 x 4 mg/kg i.v.): 54.2 ± 9.1%
Tumor HER3 mRNA relative to saline treated controls ([3]; 60.2 x 2 or 3 mg/kg i.v.): 47.1 ± 2.2%
Tumor Hif1A mRNA relative to saline treated controls [4]: 101 ± 7.3%
Liver HER3 mRNA relative to saline treated controls ([5]; 60.2 x 4 mg/kg i.v.): 31.8 ± 5%
Liver HER3 mRNA relative to saline treated controls ([5]; 60.2 x 2 or 3 mg/kg i.v.): 6.9 ± 3.6%
HER3 Liver ([5]; A549 xenograft mice, 35 mg/kg, q4d x 3, i.v.): 31.8 ± 5.7 % saline control
HER3 Liver ([5]; N87 xenograft mice, 25 mg/kg, q3d x 5, i.v.): 24.7 ± 3.1 % saline control
HER3 Tumor [6]: 54.6 ± 15.2 % saline control
HER3 Tumor [7]: 46.6 ± 13.4 % saline control
reduction in cell growth as compared to the untreated control [8]: greater than 80%
reduction in cell growth as compared to the untreated control [9]: about 50%
Mean tumor volume reduced vs. saline control ([10]; 30 mg/kg i.v.): 65.5%
Mean tumor volume reduced vs. saline control ([10]; 45 mg/kg i.v.): 81.3%
prevention of feedback upregulation of HER3 and P-HER3 expression by lapatinib [11]: able to prevent feedback upregulation of HER3 and P-HER3 expression by lapatinib
